The text below walks through data of publication PMC9350911, “Protein–Calixarene Complexation: From Recognition to Assembly” (Accounts of Chemical Research, 2022).

Format in all cases: binding
For assay [1], the target named is Penicillium antifungal protein (PAF) (Penicillium chrysogenum, UniProt Q01701). The assay is described as follows: ITC; X-ray cocrystal structure; NMR.
The target of assay [2] is T1, cytochrome c (cyt c) (Saccharomyces cerevisiae, UniProt P00044).
T1 construct: gene CYC1
T1 sequence (P00044 2-109): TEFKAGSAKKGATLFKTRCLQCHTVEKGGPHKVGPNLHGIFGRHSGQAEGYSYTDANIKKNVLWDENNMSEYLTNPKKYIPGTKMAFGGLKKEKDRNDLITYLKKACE
Kind of assay: ITC; X-ray cocrystal structure; NMR. Particulars: read-out: apparent dissociation constant; cited from earlier work. On the technique in general: Isothermal titration calorimetry measures the heat released or taken up as one component is titrated into another.

In assay [3] the target is T1, cytochrome c (cyt c). The assay is described as follows: ITC; X-ray cocrystal structure; NMR; SECMALS.
Assay [4] has as its target T1, cytochrome c (cyt c). The assay is described as follows: ITC; X-ray cocrystal structure. As to conditions: read-out: apparent dissociation constant; cited from earlier work.

Sequence of Penicillium antifungal protein (PAF) (Q01701 38-92 limits assumed): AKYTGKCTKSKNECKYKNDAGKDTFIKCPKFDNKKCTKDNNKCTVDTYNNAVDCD

Regarding `O=S(=O)(O)c1cc2c(O)c(c1)Cc1cc(S(=O)(=O)O)cc(c1O)Cc1cc(S(=O)(=O)O)cc(c1O)Cc1cc(S(=O)(=O)O)cc(c1O)Cc1cc(S(=O)(=O)O)cc(c1O)Cc1cc(S(=O)(=O)O)cc(c1O)C2` [sulfonato-calix[6]arene], in assay [1], the binding affinity entry is on record as “Micromolar binding affinities were determined by ITC”. Take `O=S(=O)(O)c1cc2c(O)c(c1)Cc1cc(S(=O)(=O)O)cc(c1O)Cc1cc(S(=O)(=O)O)cc(c1O)Cc1cc(S(=O)(=O)O)cc(c1O)C2` [sulfonato-calix[4]arene]: the Kd on cytochrome c (cyt c) [2] was 30 µM. Besides, the binding affinity result in assay [1] is “Micromolar binding affinities were determined by ITC”. Turning to `O=P(O)(O)c1cc2c(O)c(c1)Cc1cc(P(=O)(O)O)cc(c1O)Cc1cc(P(=O)(O)O)cc(c1O)Cc1cc(P(=O)(O)O)cc(c1O)Cc1cc(P(=O)(O)O)cc(c1O)Cc1cc(P(=O)(O)O)cc(c1O)C2` [phosphonato-calix[6]arene], on cytochrome c (cyt c) [3], the binding affinity result is on record as “the ITC data indicated a binding affinity in the low micromolar range”. `O=S(=O)(O)c1cc2c(O)c(c1)Cc1cc(S(=O)(=O)O)cc(c1O)Cc1cc(S(=O)(=O)O)cc(c1O)Cc1cc(Br)cc(c1O)C2` [bromo-sulfonato-calix[4]arene]: the Kd on cytochrome c (cyt c) [4] is 20 µM.
